The text below walks through data of patent US10329309B2, “3-(3H-imidazo[4,5-B]pyridin-2-yl)-1H-pyrazolo[4,3-B]pyridines and therapeutic uses thereof” (Samumed, LLC, priority 2015, dated 2019).

pEC50: −log10 of the molar value. Where only a bound is given, the exact number is not on record here.

Experiment [1] has as its system Wnt activity (Sp5-Luc reporter, SW480 colon carcinoma cells). Kind of experiment: Screening assay for Wnt activity: Sp5-Luc reporter gene assay in SW480 cells. Format: cell-based. The conditions noted are these: Homo sapiens, overnight incubation, 10-point dose-response from 10 μM. In a few lines:
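SW480 cells stably carrying Sp5-Luc reporter (eight TCF/LEF sites) plated at 4,000/well in 1% FBS medium with compound (10-point 1:3 series from 10 μM, 0.1% DMSO) overnight at 37 °C. BrightGlo luminescence normalized to DMSO; EC50 by four-parameter fit, else % inhibition at 10 μM.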
For orientation: A reporter such as luciferase makes a cellular process visible.

The test system of experiment [2] is SW480 colon cancer cells. Kind of experiment: Cell viability assay (CellTiter-Blue), four days. The conditions noted are these: Homo sapiens, 96 h; for pEC50: CellTiter-Blue cell viability; for inhibition at 10 µM: read-out: percent inhibition at 10 μM (given for EC50 of >10 μM). In kind it is cell-based. In a few lines: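 SW480 colon cancer cells (~2×10^3/well) exposed to 8-point 1:3 dilutions from 10 μM to 0.0045 μM for four days at 37 °C/5% CO2. Viability read by resazurin (CellTiter-Blue) fluorescence after ~3 h, Ex 560/Em 590 nm. EC50 from non-linear regression; percent inhibition at 10 μM given when EC50 >10 μM.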
Background: Alamar Blue is a resazurin reagent that responds to reducing activity.

The term pEC50 denotes −log10 of the EC50, conventionally taken in molar units. The low end stands for a large EC50, the high end for a small EC50. For orientation: inhibition means the share of the control response that was lost under treatment. On to `CC(C)(C)CC(=O)Nc1cncc(-c2ccc3[nH]nc(-c4nc5c(-c6ccccc6F)ccnc5[nH]4)c3n2)c1` [Compound 72, N-(5-(3-(7-(2-fluorophenyl)-3H-imidazo[4,5-b]pyridin-2-yl)-1H-pyrazolo [4,3-b]pyridin-5-yl)pyridin-3-yl)-3,3-dimethylbutanamide], for which the pEC50 in experiment [1] was 5.70. Moreover, in experiment [2], the negative-log EC50 (pEC50) was under 5.00 and the inhibition at 10 µM is 0%.

For `Fc1ccccc1-c1ccnc2[nH]c(-c3n[nH]c4ccc(-c5ccccn5)nc34)nc12` [Compound 84, 3-(7-(2-Fluorophenyl)-3H-imidazo[4,5-b]pyridin-2-yl)-5-(pyridin-2-yl)-1H-pyrazolo[4,3-b]pyridine], the results for the pEC50 in experiment [1] and in experiment [2] were 6.17 and under 5.00, respectively. Moreover, the inhibition at 10 µM in experiment [2] worked out at 0%.

With `O=C(Nc1cncc(-c2ccc3[nH]nc(-c4nc5c(N6CCCCC6)ccnc5[nH]4)c3n2)c1)C1CC1` [Compound 188, N-(5-(3-(7-(Piperidin-1-yl)-3H-imidazo[4,5-b]pyridin-2-yl)-1H-pyrazolo [4,3-b]pyridin-5-yl)pyridin-3-yl)cyclopropanecarboxamide], the values for the pEC50 in experiment [1] and in experiment [2] were 5.40 and 5.41, respectively.

`O=C(Nc1cncc(-c2ccc3[nH]nc(-c4nc5c(-c6ccsc6)ccnc5[nH]4)c3n2)c1)c1ccccc1` [Compound 291, N-(5-(3-(7-(Thiophen-3-yl)-3H-imidazo[4,5-b]pyridin-2-yl)-1H-pyrazolo [4,3-b]pyridin-5-yl)pyridin-3-yl)benzamide]: the pEC50 is 6.28 in experiment [1] and under 5.00 in experiment [2]. In experiment [2], the inhibition at 10 µM came to 2%.

For `O=C(Nc1cncc(-c2ccc3[nH]nc(-c4nc5c(-c6cccs6)ccnc5[nH]4)c3n2)c1)C1CC1` [Compound 356, N-(5-(3-(7-(Thiophen-2-yl)-3H-imidazo[4,5-b]pyridin-2-yl)-1H-pyrazolo [4,3-b]pyridin-5-yl)pyridin-3-yl)cyclopropanecarboxamide], the pEC50 in experiment [1] was 5.64. Moreover, in experiment [2], the pEC50 is under 5.00 and the inhibition at 10 µM amounted to 12.4%.

As for `CS(=O)(=O)NCc1cc(F)cc(-c2ccnc3[nH]c(-c4n[nH]c5ccc(-c6cncc(CNCc7ccccc7)c6)nc45)nc23)c1` [Compound 500, N-(3-(2-(5-(5-((Benzylamino)methyl)pyridin-3-yl)-1H-pyrazolo[4,3-b]pyridin-3-yl)-3H-imidazo[4,5-b]pyridin-7-yl)-5-fluorobenzyl)methanesulfonamide], the pEC50 in experiment [1] was 5.45; in experiment [2], 5.05.

As to `Fc1cccc(-c2ccnc3[nH]c(-c4n[nH]c5ccc(-c6cncc(OCCN7CCCC7)c6)nc45)nc23)c1` [Compound 514, 3-(7-(3-Fluorophenyl)-3H-imidazo[4,5-b]pyridin-2-yl)-5-(5-(2-(pyrrolidin-1-yl)ethoxy)pyridin-3-yl)-1H-pyrazolo[4,3-b]pyridine], the pEC50 in experiment [1] is 5.39; in experiment [2], 5.06.

As for `COc1cccc(-c2ccnc3[nH]c(-c4n[nH]c5ccc(-c6cncc(NC(=O)CC(C)(C)C)c6)nc45)nc23)c1` [Compound 1006, N-(5-(3-(7-(3-methoxyphenyl)-3H-imidazo[4,5-b]pyridin-2-yl)-1H-pyrazolo[4,3-b]pyridin-5-yl)pyridin-3-yl)-3,3-dimethylbutanamide], the pEC50 in experiment [1] was 5.81; in experiment [2], 5.93.

For the molecule `COc1cccc(-c2ccnc3[nH]c(-c4n[nH]c5ccc(-c6cncc(NC(=O)C7CCCCC7)c6)nc45)nc23)c1` [Compound 1012, N-(5-(3-(7-(3-Methoxyphenyl)-3H-imidazo[4,5-b]pyridin-2-yl)-1H-pyrazolo [4,3-b]pyridin-5-yl)pyridin-3-yl)cyclohexanecarboxamide], the pEC50 in experiment [1] is 5.72; in experiment [2], 5.54.
